From patent US8148391B2 (Cephalon, Inc., priority 2006, dated 2012) come the findings set out here.

Each structure is given as a SMILES string.

Assay [1] has as its target T1, c-Met (cytoplasmic domain) (Homo sapiens, UniProt P08581).
T1 construct: 10 ng/mL c-Met (cytoplasmic domain, Invitrogen Corporation #PV3143); purchased Invitrogen Corporation PV3143
In words: c-Met Kinase Assay (same methods as for ALK, with modifications). Type of assay: biochemical. As to conditions: c-Met kinase inhibition, 1 μM ATP (Km level); read-out: cMet Activity. The essentials: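 Europium-labeled PT66 antibody (Eu-N1) detects substrate phosphorylation on wells coated with phospholipase C-γ at 10 μg/mL. The kinase, the cytoplasmic domain of c-Met at 10 ng/mL, starts the reaction, which proceeds 15 minutes at 37° C.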

Assay [2] has as its target T2, baculovirus-expressed ALK (Homo sapiens, UniProt Q9UM73).
T2 construct: host or cells: baculovirus expression system
As to the kind of experiment: ALK Kinase Assay (ELISA-type, time-resolved fluorescence). In kind it is biochemical. The conditions noted are these: ALK kinase inhibition, 1 μM ATP (Km level); read-out: ALK Activity. An outline of the steps: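 Plates coated with phospholipase C-γ substrate (10 μg/mL in TBS); reaction started with 30 ng/ml ALK and run 15 min at 37° C. Phosphorylated substrate detected with Eu-N1-labeled PT66 antibody. IC50 from sigmoidal variable-slope fit of percent inhibition vs log concentration.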

T1 sequence (P08581 956-1390 limits assumed): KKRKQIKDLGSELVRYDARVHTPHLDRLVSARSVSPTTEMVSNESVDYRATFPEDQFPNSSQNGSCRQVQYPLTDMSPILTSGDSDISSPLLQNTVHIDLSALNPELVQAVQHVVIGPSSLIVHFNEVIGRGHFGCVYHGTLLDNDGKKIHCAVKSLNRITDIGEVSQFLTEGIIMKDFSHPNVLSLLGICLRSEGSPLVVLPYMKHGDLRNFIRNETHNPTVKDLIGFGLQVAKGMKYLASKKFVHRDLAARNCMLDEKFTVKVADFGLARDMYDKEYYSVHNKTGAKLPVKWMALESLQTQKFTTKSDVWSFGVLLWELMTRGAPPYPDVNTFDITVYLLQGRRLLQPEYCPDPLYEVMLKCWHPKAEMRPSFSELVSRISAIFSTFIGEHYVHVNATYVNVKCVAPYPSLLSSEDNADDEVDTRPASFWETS
T2 sequence (Q9UM73 19-1620): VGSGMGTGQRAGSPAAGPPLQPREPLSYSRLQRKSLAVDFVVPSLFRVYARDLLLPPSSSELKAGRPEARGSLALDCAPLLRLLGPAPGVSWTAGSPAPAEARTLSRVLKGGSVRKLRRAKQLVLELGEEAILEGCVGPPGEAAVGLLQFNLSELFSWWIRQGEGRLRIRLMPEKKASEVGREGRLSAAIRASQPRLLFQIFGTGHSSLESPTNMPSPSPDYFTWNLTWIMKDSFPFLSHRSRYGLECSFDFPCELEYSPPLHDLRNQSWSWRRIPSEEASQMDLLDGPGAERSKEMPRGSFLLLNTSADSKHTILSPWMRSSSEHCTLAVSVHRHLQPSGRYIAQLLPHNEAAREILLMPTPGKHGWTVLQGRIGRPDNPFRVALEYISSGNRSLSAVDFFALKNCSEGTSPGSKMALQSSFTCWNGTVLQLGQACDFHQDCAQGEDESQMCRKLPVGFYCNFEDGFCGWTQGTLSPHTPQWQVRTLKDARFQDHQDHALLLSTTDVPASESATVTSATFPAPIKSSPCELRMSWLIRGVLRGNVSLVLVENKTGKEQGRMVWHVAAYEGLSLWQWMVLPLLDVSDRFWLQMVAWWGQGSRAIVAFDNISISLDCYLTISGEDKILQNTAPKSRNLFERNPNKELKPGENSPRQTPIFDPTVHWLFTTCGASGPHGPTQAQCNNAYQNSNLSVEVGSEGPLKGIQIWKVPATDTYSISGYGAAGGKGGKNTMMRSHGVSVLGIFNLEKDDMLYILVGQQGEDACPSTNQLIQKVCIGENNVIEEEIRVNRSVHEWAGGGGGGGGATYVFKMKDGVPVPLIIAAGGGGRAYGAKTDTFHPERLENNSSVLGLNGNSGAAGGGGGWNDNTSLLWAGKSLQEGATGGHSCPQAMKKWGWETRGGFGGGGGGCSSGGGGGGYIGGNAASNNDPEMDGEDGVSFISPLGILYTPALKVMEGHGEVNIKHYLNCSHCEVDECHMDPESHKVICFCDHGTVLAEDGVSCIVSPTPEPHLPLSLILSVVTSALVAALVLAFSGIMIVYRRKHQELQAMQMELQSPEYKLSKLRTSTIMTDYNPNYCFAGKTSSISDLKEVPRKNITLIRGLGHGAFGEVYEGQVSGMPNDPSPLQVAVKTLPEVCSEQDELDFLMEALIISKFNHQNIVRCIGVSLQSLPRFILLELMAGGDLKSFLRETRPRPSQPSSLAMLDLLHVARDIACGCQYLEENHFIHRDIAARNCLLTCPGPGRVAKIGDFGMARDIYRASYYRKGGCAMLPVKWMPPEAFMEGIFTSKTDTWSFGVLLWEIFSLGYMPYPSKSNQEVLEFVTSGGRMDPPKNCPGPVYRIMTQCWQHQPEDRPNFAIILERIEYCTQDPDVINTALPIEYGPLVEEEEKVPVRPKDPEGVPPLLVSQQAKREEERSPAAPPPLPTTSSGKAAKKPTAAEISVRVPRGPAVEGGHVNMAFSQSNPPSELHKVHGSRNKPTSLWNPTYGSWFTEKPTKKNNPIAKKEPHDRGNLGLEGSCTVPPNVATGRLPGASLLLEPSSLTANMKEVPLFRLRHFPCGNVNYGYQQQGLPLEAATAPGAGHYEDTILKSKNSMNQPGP

`CNC(=O)c1ccccc1Nc1nc(Nc2ccc3c(c2Cl)C2CCC(C3)N2)ncc1Cl` (stereo not drawn) [Example 81, 2-[5-Chloro-2-(3-chloro-12-aza-tricyclo[7.2.1.0*2,7*]dodeca-2(7),3,5-trien-4-ylamino)-pyrimidin-4-ylamino]-N-methyl-benzamide]: the IC50 in assay [1] is 100 to 1000 nM; in assay [2] it was less than 100 nM.

Regarding `CS(=O)(=O)N[C@@H]1CCCC[C@H]1Nc1nc(Nc2ccc3c(c2)C2CCC(C3)N2)ncc1Cl` (stereo partly drawn) [Example 82, N-{(1R,2R)-2-[2-(12-Aza-tricyclo[7.2.1.0*2,7*]dodeca-2(7),3,5-trien-4-ylamino)-5-chloro-pyrimidin-4-ylamino]-cyclohexyl}-methanesulfonamide], the IC50 in assay [1] lay in the range of 100 to 1000 nM; in assay [2], 1000 to 10000 nM.

In the case of `CC(C)N1C2CCC1c1cc(Nc3ncc(Cl)c(N[C@@H]4CCCC[C@H]4NS(C)(=O)=O)n3)ccc1C2` (stereo partly drawn) [Example 83, N-{(1R,2R)-2-[5-Chloro-2-(12-isopropyl-12-aza-tricyclo[7.2.1.0*2,7*]dodeca-2(7),3,5-trien-4-ylamino)-pyrimidin-4-ylamino]-cyclohexyl}-methanesulfonamide], the IC50 in assay [1] is 100 to 1000 nM; in assay [2], less than 100 nM.

For `CNC(=O)c1ccccc1Nc1nc(Nc2ccc3c(c2Cl)C2CCC(C3)N2C(C)C)ncc1Cl` (stereo not drawn) [Example 86, 2-[5-Chloro-2-(3-chloro-12-isopropyl-12-aza-tricyclo[7.2.1.0*2,7*]dodeca-2(7),3,5-trien-4-ylamino)-pyrimidin-4-ylamino]-N-methyl-benzamide], the IC50 was 100 to 1000 nM in assay [1] and less than 100 nM in assay [2].

On to `CNC(=O)c1ccccc1Nc1nc(Nc2ccc3c(c2Cl)C2CCC(C3)N2CCOC)ncc1Cl` (stereo not drawn) [Example 87, 2-{5-Chloro-2-[3-chloro-12-(2-methoxy-ethyl)-12-aza-tricyclo[7.2.1.0*2,7*]dodeca-2(7),3,5-trien-4-ylamino]-pyrimidin-4-ylamino}-N-methyl-benzamide], for which the IC50 is 100 to 1000 nM in assay [1] and less than 100 nM in assay [2].

Regarding `CNC(=O)c1ccccc1Nc1nc(Nc2cc3c(cc2Cl)CC2CCC3N2CCOC)ncc1Cl` (stereo not drawn) [Example 88, 2-{5-Chloro-2-[5-chloro-12-(2-methoxy-ethyl)-12-aza-tricyclo[7.2.1.0*2,7*]dodeca-2(7),3,5-trien-4-ylamino]-pyrimidin-4-ylamino}-N-methyl-benzamide], the IC50 in assay [1] was 1000 to 10000 nM; in assay [2], less than 100 nM.

Turning to `CNC(=O)c1cccc(Cl)c1Nc1nc(Nc2ccc3c(c2)C2CCC(C3)N2)ncc1Cl` (stereo not drawn) [Example 90, 2-[2-(12-Aza-tricyclo[7.2.1.0*2,7*]dodeca-2(7),3,5-trien-4-ylamino)-5-chloro-pyrimidin-4-ylamino]-3-chloro-N-methyl-benzamide], the IC50 is less than 100 nM in assay [1] and 100 to 1000 nM in assay [2].

With `CNC(=O)c1cccc(Cl)c1Nc1nc(Nc2ccc3c(c2)C2CCC(C3)N2CCOC)ncc1Cl` (stereo not drawn) [Example 91, 3-Chloro-2-{5-chloro-2-[12-(2-methoxy-ethyl)-12-aza-tricyclo[7.2.1.0*2,7*]dodeca-2(7),3,5-trien-4-ylamino]-pyrimidin-4-ylamino}-N-methyl-benzamide], the results for the IC50 in assay [1] and in assay [2] were less than 100 nM and 100 to 1000 nM, respectively.

For `COc1c(Nc2ncc(Cl)c(N[C@@H]3CCCC[C@H]3NS(C)(=O)=O)n2)ccc2c1C1CCC(C2)N1` (stereo partly drawn) [Example 92, N-{(1R,2R)-2-[5-Chloro-2-(3-methoxy-12-aza-tricyclo[7.2.1.0*2,7*]dodeca-2(7),3,5-trien-4-ylamino)-pyrimidin-4-ylamino]-cyclohexyl}-methanesulfonamide], the IC50 in assay [1] is more than 10000 nM; in assay [2] it was 1000 to 10000 nM.

As to `CCN1C2CCC1c1c(ccc(Nc3ncc(Cl)c(N[C@@H]4CCCC[C@H]4NS(C)(=O)=O)n3)c1OC)C2` (stereo partly drawn) [Example 93, N-{(1R,2R)-2-[5-Chloro-2-(12-ethyl-3-methoxy-12-aza-tricyclo[7.2.1.0*2,7*]dodeca-2(7),3,5-trien-4-ylamino)-pyrimidin-4-ylamino]-cyclohexyl}-methanesulfonamide], the IC50 in assay [1] and in assay [2] was more than 10000 nM each time.

Regarding `CNC(=O)c1ccccc1Nc1nc(Nc2ccc3c(c2)CCCCN3C)ncc1Cl` [Example 103, 2-[5-Chloro-2-(1-methyl-2,3,4,5-tetrahydro-1H-benzo[b]azepin-7-ylamino)-pyrimidin-4-ylamino]-N-methyl-benzamide], the IC50 in assay [1] and in assay [2] was less than 100 nM each time.

For the compound `CN1CCCCc2cc(Nc3ncc(Cl)c(N[C@@H]4CCCC[C@H]4NS(C)(=O)=O)n3)ccc21` [Example 104, N-{(1R,2R)-2-[5-Chloro-2-(1-methyl-2,3,4,5-tetrahydro-1H-benzo[b]azepin-7-ylamino)-pyrimidin-4-ylamino]-cyclohexyl}-methanesulfonamide], the IC50 was 100 to 1000 nM in assay [1] and less than 100 nM in assay [2].

Consider `COc1cc(N2CCOCC2)ccc1Nc1nc(Nc2ccc3c(c2)CCCCN3C)ncc1Cl` [Example 105, 5-Chloro-N*4*-(2-methoxy-4-morpholin-4-yl-phenyl)-N*2*-(1-methyl-2,3,4,5-tetrahydro-1H-benzo[b]azepin-7-yl)-pyrimidine-2,4-diamine], for which the IC50 is more than 10000 nM in assay [1] and less than 100 nM in assay [2].

In the case of `CN1CCCCc2cc(Nc3ncc(Cl)c(Nc4ccccc4NS(C)(=O)=O)n3)ccc21` [Example 106, N-{2-[5-Chloro-2-(1-methyl-2,3,4,5-tetrahydro-1H-benzo[b]azepin-7-ylamino)-pyrimidin-4-ylamino]-phenyl}-methanesulfonamide], the IC50 is 100 to 1000 nM in assay [1] and less than 100 nM in assay [2].

For `CNC(=O)c1ccccc1Nc1nc(Nc2cc3c(cc2OC)C(=O)N(C)CCC3)ncc1Cl` [Example 107, 2-[5-Chloro-2-(8-methoxy-2-methyl-1-oxo-2,3,4,5-tetrahydro-1H-benzo[c]azepin-7-ylamino)-pyrimidin-4-ylamino]-N-methyl-benzamide], the IC50 in assay [1] is 100 to 1000 nM; in assay [2] it was less than 100 nM.

On to `CNC(=O)c1ccccc1Nc1nc(Nc2ccc3c(c2)N(C)C(=O)CCC3)ncc1Cl` [Example 108, 2-[5-Chloro-2-(1-methyl-2-oxo-2,3,4,5-tetrahydro-1H-benzo[b]azepin-8-ylamino)-pyrimidin-4-ylamino]-N-methyl-benzamide], for which the IC50 in assay [1] and in assay [2] was less than 100 nM throughout.

As for `CN1C(=O)CCCc2ccc(Nc3ncc(Cl)c(N[C@@H]4CCCC[C@H]4NS(C)(=O)=O)n3)cc21` [Example 109, N-{(1R,2R)-2-[5-Chloro-2-(1-methyl-2-oxo-2,3,4,5-tetrahydro-1H-benzo[b]azepin-8-ylamino)-pyrimidin-4-ylamino]-cyclohexyl}-methanesulfonamide], the IC50 in assay [1] is 1000 to 10000 nM; in assay [2], less than 100 nM.

Consider `CN1C(=O)CCCc2ccc(Nc3ncc(Cl)c(NC4C5C=CC(C5)C4C(N)=O)n3)cc21` (stereo not drawn) [Example 110, (2-exo,3-exo)-3-[5-Chloro-2-(1-methyl-2-oxo-2,3,4,5-tetrahydro-1H-benzo[b]azepin-8-ylamino)pyrimidin-4-ylamino]-bicyclo[2.2.1]hept-5-ene-2-carboxylic acid amide], for which the IC50 was 100 to 1000 nM in assay [1] and less than 100 nM in assay [2].
